# Laboratory results reported in ChEMBL document CHEMBL1122903, “Synthesis, in vitro [3H]prazosin displacement, and in vivo activity of 3-aryl-4,5,6,7-tetrahydropyrazolo[4,3-c]pyridines, a new class of antihypertensive agents” (J Med Chem, 1985).
# Assays:
# [1] = target: T1, Adrenergic receptor alpha-1 (Rattus norvegicus, UniProt P15823+P23944+P43140); assay: Ability to displace [3H]prazosin from postsynaptic alpha-1 adrenergic receptor of rat in vitro.; assay type: protein assay
# T1 sequence (P15823 whole entry): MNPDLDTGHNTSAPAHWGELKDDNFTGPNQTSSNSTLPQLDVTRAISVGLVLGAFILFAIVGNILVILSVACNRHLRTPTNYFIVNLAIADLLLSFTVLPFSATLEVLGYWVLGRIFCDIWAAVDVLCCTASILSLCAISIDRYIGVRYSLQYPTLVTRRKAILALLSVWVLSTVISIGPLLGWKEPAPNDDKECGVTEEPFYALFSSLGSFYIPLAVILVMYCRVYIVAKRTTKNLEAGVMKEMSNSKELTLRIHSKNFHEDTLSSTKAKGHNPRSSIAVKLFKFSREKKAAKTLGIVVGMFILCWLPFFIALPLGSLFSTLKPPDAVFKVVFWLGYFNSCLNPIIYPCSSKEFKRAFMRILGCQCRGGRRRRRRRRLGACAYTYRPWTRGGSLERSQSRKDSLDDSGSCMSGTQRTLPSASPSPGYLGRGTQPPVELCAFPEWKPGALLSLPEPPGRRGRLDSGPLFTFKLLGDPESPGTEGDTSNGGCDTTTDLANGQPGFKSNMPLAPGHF
# T1 sequence (P23944 whole entry): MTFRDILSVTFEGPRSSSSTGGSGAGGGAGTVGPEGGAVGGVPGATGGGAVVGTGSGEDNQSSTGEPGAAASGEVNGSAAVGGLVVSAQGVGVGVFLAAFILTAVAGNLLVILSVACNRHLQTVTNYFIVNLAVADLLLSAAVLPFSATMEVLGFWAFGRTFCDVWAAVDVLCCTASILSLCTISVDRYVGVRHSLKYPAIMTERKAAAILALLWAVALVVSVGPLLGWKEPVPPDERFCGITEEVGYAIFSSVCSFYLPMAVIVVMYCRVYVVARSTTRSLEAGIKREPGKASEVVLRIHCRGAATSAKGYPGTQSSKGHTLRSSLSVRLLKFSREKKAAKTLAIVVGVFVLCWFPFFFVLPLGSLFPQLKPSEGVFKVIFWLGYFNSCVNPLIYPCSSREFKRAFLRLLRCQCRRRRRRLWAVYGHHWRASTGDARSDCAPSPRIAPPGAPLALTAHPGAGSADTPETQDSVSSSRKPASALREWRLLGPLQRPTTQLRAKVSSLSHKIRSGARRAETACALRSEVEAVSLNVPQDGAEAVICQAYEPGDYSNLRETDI
# T1 sequence (P43140 whole entry): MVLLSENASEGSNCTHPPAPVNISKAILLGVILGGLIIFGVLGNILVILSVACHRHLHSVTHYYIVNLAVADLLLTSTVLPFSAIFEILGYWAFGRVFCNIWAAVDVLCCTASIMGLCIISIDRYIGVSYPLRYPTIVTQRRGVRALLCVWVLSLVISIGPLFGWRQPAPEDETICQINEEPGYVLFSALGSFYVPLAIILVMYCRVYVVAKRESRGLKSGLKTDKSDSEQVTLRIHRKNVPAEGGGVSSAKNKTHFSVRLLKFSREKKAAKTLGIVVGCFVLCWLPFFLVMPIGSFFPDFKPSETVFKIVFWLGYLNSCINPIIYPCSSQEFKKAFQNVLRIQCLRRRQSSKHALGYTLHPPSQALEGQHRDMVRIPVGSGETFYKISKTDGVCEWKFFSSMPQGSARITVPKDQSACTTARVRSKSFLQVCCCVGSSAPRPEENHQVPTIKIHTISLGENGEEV
# Rattus norvegicus [2] = assay: Antihypertensive activity on spontaneously hypertensive rats when administered orally at a dose 50 mg/kg.; assay type: functional; conditions: route oral
# Rattus norvegicus [3] = assay: Antihypertensive activity on spontaneously hypertensive rats, when administered intravenously at a dose 10 mg/kg; assay type: functional; conditions: route intravenous
# Rattus norvegicus [4] = assay: Antihypertensive activity on spontaneously hypertensive rats, when administered orally at a dose 20 mg/kg; assay type: functional; conditions: route oral
Ki [1],Compound,Delta p (Rattus norvegicus [2]),Delta p (Rattus norvegicus [3]),Delta p (Rattus norvegicus [4])
> 3000 nM,Fc1ccccc1-c1[nH]nc2c1CNCC2,0%,,
40.3 nM,CN1CCc2c(c(-c3ccc(F)cc3)nn2CCc2ccccc2)C1,0%,,
15.2 nM,CCCCCCn1nc(-c2ccc(F)cc2)c2c1CCN(C)C2.CS(=O)(=O)O,-16%,,
> 3000 nM,CCN1CCc2n[nH]c(-c3ccc(OC)cc3)c2C1,0%,,
24.2 nM,CCCn1nc(-c2ccc(F)cc2)c2c1CCNC2.CS(=O)(=O)O,-33%,,
350 nM,CCN1CCc2n[nH]c(-c3ccc(C)cc3)c2C1.O=C(O)CC(=O)O,0%,,
1300 nM,CN1CCc2n[nH]c(-c3ccccc3)c2C1.O=C(O)CC(O)(CC(=O)O)C(=O)O,0%,,
> 3000 nM,Clc1cccc(-c2[nH]nc3c2CNCC3)c1,0%,,
12.9 nM,CS(=O)(=O)O.Fc1ccc(-c2nn(CCCc3ccccc3)c3c2CNCC3)cc1,,-37%,
7.2 nM,CC(c1ccccc1)n1nc(-c2ccc(F)cc2)c2c1CCNC2.CS(=O)(=O)O (stereo unspecified),,,-15%
8.7 nM,CCCCCn1nc(-c2ccc(F)cc2)c2c1CCNC2.CS(=O)(=O)O,,,-20%
206 nM,CN1CCc2c(c(-c3ccc(F)cc3)nn2-c2ccc(F)cc2)C1.CS(=O)(=O)O,,,0%
1100 nM,CC(C)n1nc(-c2ccccc2)c2c1CCNC2,0%,,
> 3000 nM,COc1ccc(-c2[nH]nc3c2CNCC3)cc1OC,0%,,
> 3000 nM,Fc1cccc(-c2[nH]nc3c2CNCC3)c1,0%,,
2020 nM,CCn1nc(-c2ccc(F)cc2)c2c1CCN(Cc1ccccc1)C2.CS(=O)(=O)O,-23%,,
32.5 nM,CCn1nc(-c2ccc(F)cc2)c2c1CCNC2.CS(=O)(=O)O,,,-37%
1060 nM,Cn1nc(-c2ccc(F)cc2)c2c1CCNC2,0%,,
97.6 nM,CC(C)N1CCc2c(c(-c3ccc(F)cc3)nn2Cc2ccccc2)C1,-20%,,
448 nM,COc1ccc(-c2[nH]nc3c2CNCC3)cc1,-15%,,
> 3000 nM,N#Cc1ccc(-c2[nH]nc3c2CNCC3)cc1,0%,,
17.3 nM,CCCCn1nc(-c2ccc(F)cc2)c2c1CCNC2.CS(=O)(=O)O,,-30%,
3400 nM,CCN1CCc2n[nH]c(-c3ccc(F)cc3)c2C1.O=C(O)CC(=O)O,0%,,
40.3 nM,CS(=O)(=O)O.Fc1ccc(-c2nn(CCc3ccccc3)c3c2CNCC3)cc1,-15%,,

Ki [1],Compound,Delta p (Rattus norvegicus [2]),Delta p (Rattus norvegicus [3]),Delta p (Rattus norvegicus [4])
249 nM,Cc1ccc(-c2[nH]nc3c2CN(C)CC3)cc1.Cc1ccc(S(=O)(=O)O)cc1,,,0%
2000 nM,CN1CCc2n[nH]c(-c3ccc(Cl)cc3)c2C1.O=C(O)CC(O)(CC(=O)O)C(=O)O,0%,,
507 nM,CN1CCc2n[nH]c(-c3ccc(F)cc3)c2C1,,,0%
92.2 nM,Cc1ccc(-c2[nH]nc3c2CNCC3)cc1.Cl.Cl,,,0%
490 nM,Cl.Cl.c1ccc(-c2[nH]nc3c2CNCC3)cc1,-18%,,
32.8 nM,CCCCn1nc(-c2ccc(F)cc2)c2c1CCN(C)C2.CS(=O)(=O)O,-18%,,
73.5 nM,CCCn1nc(-c2ccc(F)cc2)c2c1CCN(C)C2.CS(=O)(=O)O,-25%,,
69.2 nM,Fc1ccc(-c2[nH]nc3c2CNCC3)cc1,-37%,,
3290 nM,CS(=O)(=O)O.Cn1nc(-c2ccccc2)c2c1CCNC2,0%,,
> 3000 nM,Cn1nc(-c2cccc(Cl)c2)c2c1CCNC2,0%,,
2870 nM,CC(C)n1nc(-c2ccccc2)c2c1CCN(C)C2.CS(=O)(=O)O,0%,,
> 3000 nM,Cn1nc(-c2cccc(F)c2)c2c1CCNC2,0%,,
21.2 nM,CN1CCc2c(c(-c3ccc(F)cc3)nn2Cc2ccccc2)C1.CS(=O)(=O)O,-18%,,
> 3000 nM,Cc1ccc(S(=O)(=O)O)cc1.Cn1nc(-c2ccccc2F)c2c1CCNC2,0%,,
13 nM,CCCCCCn1nc(-c2ccc(F)cc2)c2c1CCNC2.CS(=O)(=O)O,0%,,
18.3 nM,CCCCCn1nc(-c2ccc(F)cc2)c2c1CCN(C)C2.CS(=O)(=O)O,,,-21%
119 nM,CCCCN1CCc2c(c(-c3ccc(F)cc3)nn2Cc2ccccc2)C1.Cl,-16%,,
42.4 nM,Cl.Fc1ccc(-c2nn(Cc3ccccc3)c3c2CN(C2CCCC2)CC3)cc1,-18%,,
1500 nM,CCN1CCc2n[nH]c(-c3ccccc3)c2C1.Cl,0%,,
161 nM,Cl.Fc1ccc(-c2nn(-c3ccc(F)cc3)c3c2CNCC3)cc1,,,0%
20.6 nM,CN1CCc2c(c(-c3ccc(F)cc3)nn2CCCc2ccccc2)C1.Cl,0%,,
190 nM,Cl.Cn1nc(-c2ccc(Cl)cc2)c2c1CCNC2,-26%,,
> 3000 nM,Cl.O=[N+]([O-])c1ccc(-c2[nH]nc3c2CNCC3)cc1,0%,,
8.1 nM,CC(c1ccccc1)n1nc(-c2ccc(F)cc2)c2c1CCN(C)C2.Cl (stereo unspecified),,,-15%
